Data reported in paper PMC10362580, “Patient-derived organoids for precision oncology: a platform to facilitate clinical decision making” (BMC Cancer, 2023).

Columns and labels:
[1] = tested on: patient-derived primary ovarian cancer organoids (Tumor Organoid); test: PDO drug sensitivity and resistance testing (CellTiter-Glo), ovarian tumor organoids; type: cell-based, human; details: for IC50: Homo sapiens; for Viability of organoids (CTG assay): ovarian cancer organoids
Method: (§1) Patient-derived tumor organoid was dissociated to single cells after seven days in culture. Epithelial Cells (from tumor and adjacent normal tissues) in combination with patient-derived isogenic adipose-derived Mesenchymal Stem Cells: iECs: MSCs (3:1:1) were seeded at a density of 5000 cells per well in 96-well clear bottom microplates. Multicellular organoids were allowed to grow for seven days. Breast and ovarian organoids were imaged every day and fed every alternate day with aforementioned Breast organoid medium and Ovarian organoid medium respectively. […] Organoids were subsequently incubated for […]; DMSO only- vehicle control and media only- negative control was used to set the baseline. After 0, 1, 7, 14 and 21 days ATP levels were measured with the CellTiter-Glo (Promega, Wisconsin, USA). All screenings were performed in triplicates. Data were analyzed using GraphPad Prism 6. Drug dose–response curves were visualized using […] analysis [setting: log (inhibitor) versus response, least-squares (ordinary) fit; top constraint 100%]. Concentrations where 50% cell viability (IC50-value) was reached were interpolated. The area under the curve (AUC) was approximated between the lowest and highest concentrations screened in the actual assay with the trapezoid rule for numerical integration. The dose–response curves were plotted as the percentage of the cell viability against the logarithm of drug concentrations in µM and were fitted to estimate the IC50.
(§2) We developed a protocol to culture and expand organoids from tissues collected from ovarian cancer patients. […] We performed drug sensitivity and resistance test (DSRT) using 2 FDA-approved commonly used therapeutic drugs paclitaxel and doxorubicin. Depending on the properties of the individual drugs, the concentrations ranged from 0.001 µM to 1000 µM (Fig. 6).
(§3) Following seven days incubation, organoid cultures were manually inspected using a phase-contrast microscope to check cell health and morphology prior to the addition of drugs. CellTiter-Glo® 2.0 determines the number of viable cells in a well, based on the quantification of ATP present, an indicator of metabolically viable cells. Total cell count was measured by CellTiter-Glo® 2.0, which causes cell lysis and produces a luminescence signal proportional to the amount of ATP present. Following completion of the above quality metrics, the data was normalized or the raw intensity data was used for curve-fitting. • Data normalization: Normalization was completed using the following calculation: (Raw intensity signal- Mean of positive control/ Mean of negative control-Mean positive control)

[2] = tested on: Normal Organoid from normal adjacent tissue of ovarian cancer patients; test: PDO drug sensitivity and resistance testing (CellTiter-Glo), ovarian normal adjacent tissue organoids; type: cell-based; details: Homo sapiens
Method: as §1, §2, §3

[3] = tested on: patient-derived breast cancer organoids (Tumor Organoid); test: PDO drug sensitivity and resistance testing (CellTiter-Glo), breast tumor organoids; type: cell-based, human; details: for IC50: Homo sapiens; for Viability of organoids (CTG assay): breast cancer organoids; for Response of breast cancer PDOs to treatment: few breast cancer PDOs
Method: as §1
(§4) We investigated BC organoids in response to standard medications in order to assess their potential as in vitro disease models. Towards this, PDOs were treated with doxorubicin and paclitaxel (commonly used chemotherapeutic drugs).
as §3

[4] = tested on: Normal Organoid from normal adjacent tissue of breast cancer patients; test: PDO drug sensitivity and resistance testing (CellTiter-Glo), breast normal adjacent tissue organoids; type: cell-based; details: Homo sapiens
Method: as §1, §4, §3

[5] = tested on: iPSCs-derived forebrain motor neurons; test: Neurite outgrowth assay (neurotoxicity); details: 1 µM; neurons from healthy donor, breast cancer and ovarian cancer patient
Method: Neurite outgrowth assay was performed to determine neurotoxicity. […] We tested neurotoxic chemotherapeutic drug on iPSC-derived neurons- control (healthy donor), breast cancer and ovarian cancer patients [46–48] using ImageXpress® Nano Automated Imaging System (Molecular Devices).

[6] = tested on: iPSCs-derived cardiomyocytes; test: Calcium transient assay (cardiotoxicity); type: cell-based, human; details: 1 µM; cardiomyocytes from healthy donor, breast cancer and ovarian cancer patient
Method: To initiate cardiac differentiation, 10,000 cells/cm^2 of passage 11–20 single cell suspension of iPSCs were seeded on matrigel coated plates in mTeSR™1 media and incubated overnight to obtain 95% confluent culture. Once cells reached > 95% confluence, RPMI 1648 medium (Gibco)/B-27 Supplement Minus Insulin (Gibco)/ 100 ng/ml Activin A (Gibco) + Matrigel (Corning) + […] CHIR9902 (Stem Cell Technologies) was added. CHIR9902 only for 24 h. Day 02–04: RPMI 1648 medium (Gibco)/B-27 Supplement Minus Insulin (Gibco)/ activin A (Gibco) (100 ng/ml) and BMP4 (Gibco) (10 ng/ml) and bFGF. Day 05–06: RPMI 1640 (with L-glutamine) with 2% B27 minus insulin supplement, 1 µl IWR-1 (5 µM final). Day 07–09: RPMI 1640 with L-Glutamine (Gibco) with 2% B27 with insulin supplement (Gibco). Day10: At day 10 post-differentiation, changed the medium to RPMI 1648-low glucose medium (Gibco) and maintained the cells in this medium for 3 days (until day 13). Day 13: Returned cells to RPMI/B27 medium-with insulin (Gibco). At day 14, changed the medium back to RPMI-low glucose medium (Gibco) for a second glucose deprivation cycle. Cultured the cells in this low glucose state for 3 more days. Most of the non-cardiomyocytes will die in this low-glucose culture condition. At day 17, changed the medium to 2 ml of RPMI/B27 medium with insulin. The remaining cells will be highly purified cardiomyocytes. […]

[7] = tested on: iPSCs-derived hepatocytes; test: Cytoskeleton disruption in hepatocytes (hepatotoxicity); type: cell-based, human; details: 0.1 ug/ml; hepatocytes from healthy donors, breast cancer and ovarian cancer patients
Method: To initiate hepatic differentiation, 10, 000 cells/cm^2 of passage 11 (P11) single cell suspension of iPSCs were seeded on matrigel coated plates in mTeSR™1 media and incubated overnight to obtain 95% confluent culture. Once cells reached > 95% confluence, RPMI media (Gibco) + 2% B27 supplement (Gibco) + 100 ng/ml Activin A (Gibco) + 3 µM CHIR99021 (Stem Cell Technologies) + 2% Matrigel (Corning) was added. Day 1 to 4: RPMI (Gibco) media + 2% B27 supplement (Gibco) + 100 ng/ml Activin A (Sigma). Day 5 to 10: RPMI (Gibco) media + 2% B27 supplement (Gibco) + 10 ng/ml bFGF (Sigma) + 20 ng/ml BMP4 (Sigma) + 0.5% DMSO (Sigma); Day 11 to 15: RPMI 1648 (Gibco) media + 2% B27 supplement (Gibco) + 20 ng/ml HGF (Sigma) + 0.5% DMSO (Sigma); Day 16 to 21: RPMI 1648 (Gibco) media + 2% B27 supplement (Gibco) + 20 ng/ml Oncostatin M (Gibco) + 100 nM Dexamethasone + 20 ng/ml HGF (Sigma) + 0.5% DMSO (Sigma). […] The presence of intracellular glycogen in hepatocytes was assessed by periodic acid–Schiff’s (PAS) staining and nuclei were counterstained with Mayer’s haematoxylin [42]. […]

[8] = 168 h, Ovarian Cancer Sample 1, Tumor Organoid, day 7, CTG
[9] = 168 h, Ovarian Cancer Sample 2, Tumor Organoid, day 7, CTG
[10] = 168 h, Ovarian Cancer Sample 3, Tumor Organoid, day 7, CTG
[11] = 336 h, Ovarian Cancer Sample 1, Tumor Organoid, day 14, CTG
[12] = 336 h, Ovarian Cancer Sample 2, Tumor Organoid, day 14, CTG
[13] = 336 h, Ovarian Cancer Sample 3, Tumor Organoid, day 14, CTG
[14] = 504 h, Ovarian Cancer Sample 1, Tumor Organoid, day 21, CTG
[15] = 504 h, Ovarian Cancer Sample 2, Tumor Organoid, day 21, CTG
[16] = 504 h, Ovarian Cancer Sample 3, Tumor Organoid, day 21, CTG
[17] = 168 h, Ovarian Cancer Sample 1, Normal Organoid, day 7, CTG
[18] = 168 h, Ovarian Cancer Sample 2, Normal Organoid, day 7, CTG
[19] = 168 h, Ovarian Cancer Sample 3, Normal Organoid, day 7, CTG
[20] = 336 h, Ovarian Cancer Sample 1, Normal Organoid, day 14, CTG
[21] = 336 h, Ovarian Cancer Sample 2, Normal Organoid, day 14, CTG
[22] = 336 h, Ovarian Cancer Sample 3, Normal Organoid, day 14, CTG
[23] = 504 h, Ovarian Cancer Sample 1, Normal Organoid, day 21, CTG
[24] = 504 h, Ovarian Cancer Sample 2, Normal Organoid, day 21, CTG
[25] = 504 h, Ovarian Cancer Sample 3, Normal Organoid, day 21, CTG
[26] = 168 h, Breast Cancer Sample 1, Tumor Organoid, day 7, CTG
[27] = 168 h, Breast Cancer Sample 2, Tumor Organoid, day 7, CTG
[28] = 168 h, Breast Cancer Sample 3, Tumor Organoid, day 7, CTG
[29] = 336 h, Breast Cancer Sample 1, Tumor Organoid, day 14, CTG
[30] = 336 h, Breast Cancer Sample 2, Tumor Organoid, day 14, CTG
[31] = 336 h, Breast Cancer Sample 3, Tumor Organoid, day 14, CTG
[32] = 504 h, Breast Cancer Sample 1, Tumor Organoid, day 21, CTG
[33] = 504 h, Breast Cancer Sample 2, Tumor Organoid, day 21, CTG
[34] = 504 h, Breast Cancer Sample 3, Tumor Organoid, day 21, CTG
[35] = 168 h, Breast Cancer Sample 1, Normal Organoid, day 7, CTG
[36] = 168 h, Breast Cancer Sample 2, Normal Organoid, day 7, CTG
[37] = 168 h, Breast Cancer Sample 3, Normal Organoid, day 7, CTG
[38] = 336 h, Breast Cancer Sample 1, Normal Organoid, day 14, CTG
[39] = 336 h, Breast Cancer Sample 2, Normal Organoid, day 14, CTG
[40] = 336 h, Breast Cancer Sample 3, Normal Organoid, day 14, CTG
[41] = 504 h, Breast Cancer Sample 1, Normal Organoid, day 21, CTG
[42] = 504 h, Breast Cancer Sample 2, Normal Organoid, day 21, CTG
[43] = 504 h, Breast Cancer Sample 3, Normal Organoid, day 21, CTG

CC(=O)O[C@H]1C(=O)[C@@]2(C)[C@H]([C@H](OC(=O)c3ccccc3)[C@]3(O)C[C@H](OC(=O)[C@H](O)[C@@H](NC(=O)c4ccccc4)c4ccccc4)C(C)=C1C3(C)C)[C@]1(OC(C)=O)CO[C@@H]1C[C@@H]2O [Paclitaxel]
IC50 [1, 8]: 16.7 µM | IC50 [1, 9]: 940 µM | IC50 [1, 10]: 2020 µM | IC50 [1, 11]: 20 µM | IC50 [1, 12]: 96 µM | IC50 [1, 13]: 945 µM | IC50 [1, 14]: 0.588 µM | IC50 [1, 15]: 9.74 µM | IC50 [1, 16]: 97.6 µM | Viability of organoids (CTG assay) [1]: significantly decreased the viability of organoids | IC50 [2, 17]: 22.7 µM | IC50 [2, 18]: 1240 µM | IC50 [2, 19]: 2120 µM | IC50 [2, 20]: 0.625 µM | IC50 [2, 21]: 76.7 µM | IC50 [2, 22]: 1010 µM | IC50 [2, 23]: 0.617 µM | IC50 [2, 24]: 89 µM | IC50 [2, 25]: 97.6 µM | IC50 [3, 26]: 83.6 µM | IC50 [3, 27]: 874 µM | IC50 [3, 28]: 849 µM | IC50 [3, 29]: 96.4 µM | IC50 [3, 30]: 103 µM | IC50 [3, 31]: 975 µM | IC50 [3, 32]: 94.9 µM | IC50 [3, 33]: 107 µM | IC50 [3, 34]: 8.95 µM | Viability of organoids (CTG assay) [3]: significantly decreased the viability of organoids | Response of breast cancer PDOs to treatment [3]: sensitive | IC50 [4, 35]: 7.89 µM | IC50 [4, 36]: 947 µM | IC50 [4, 37]: 95.1 µM | IC50 [4, 38]: 8.53 µM | IC50 [4, 39]: 980 µM | IC50 [4, 40]: 100 µM | IC50 [4, 41]: 0.955 µM | IC50 [4, 42]: 1000 µM | IC50 [4, 43]: 10.2 µM | Neurite outgrowth sensitivity, donor comparison [5]: Ovarian cancer patient’s neurons were found more sensitive to paclitaxel followed by breast cancer patient and healthy donor

COc1cccc2c1C(=O)c1c(O)c3c(c(O)c1C2=O)C[C@@](O)(C(=O)CO)C[C@@H]3O[C@H]1C[C@H](N)[C@H](O)[C@H](C)O1 [Doxorubicin]
IC50 [1, 8]: 847 µM | IC50 [1, 9]: 2450 µM | IC50 [1, 10]: 987 µM | IC50 [1, 11]: 877 µM | IC50 [1, 12]: 2210 µM | IC50 [1, 13]: 1040 µM | IC50 [1, 14]: 1.02 µM | IC50 [1, 15]: 1930 µM | IC50 [1, 16]: 98.1 µM | Viability of organoids (CTG assay) [1]: significantly decreased the viability of organoids | IC50 [2, 17]: 96.2 µM | IC50 [2, 18]: 2340 µM | IC50 [2, 19]: 102 µM | IC50 [2, 20]: 8.92 µM | IC50 [2, 21]: 2250 µM | IC50 [2, 22]: 8.89 µM | IC50 [2, 23]: 0.0119 µM | IC50 [2, 24]: 1160 µM | IC50 [2, 25]: 9.29 µM | IC50 [3, 26]: 902 µM | IC50 [3, 27]: 976 µM | IC50 [3, 28]: 938 µM | IC50 [3, 29]: 117 µM | IC50 [3, 30]: 1060 µM | IC50 [3, 31]: 92.2 µM | IC50 [3, 32]: 125 µM | IC50 [3, 33]: 97.6 µM | IC50 [3, 34]: 9.55 µM | Viability of organoids (CTG assay) [3]: significantly decreased the viability of organoids | Response of breast cancer PDOs to treatment [3]: resistant | IC50 [4, 35]: 96.6 µM | IC50 [4, 36]: 859 µM | IC50 [4, 37]: 955 µM | IC50 [4, 38]: 92 µM | IC50 [4, 39]: 1010 µM | IC50 [4, 40]: 96.4 µM | IC50 [4, 41]: 0.955 µM | IC50 [4, 42]: 9.53 µM | IC50 [4, 43]: 10.2 µM | Calcium oscillation/contraction pattern sensitivity, donor comparison [6]: Ovarian cancer patient’s cardiomyocytes was found more sensitive to Doxorubicin followed by breast cancer patient and healthy donor

C/C1=C/C(=O)O[C@@H]2C[C@@H](CC[C@H](C)/C=C\C=C\CC1)O[C@@](O)([C@@H]1CSC(=O)N1)C2 [Latrunculin a]
Cytoskeleton disruption sensitivity, donor comparison [7]: Ovarian cancer patient’s hepatocytes were found more sensitive to Latrunculin followed by breast cancer patient and healthy donor
